“Also recorded” adds a separate entry of the source.
Assays:
C57BL/6J mice = assay: Liver regeneration after partial hepatectomy, C57BL/6J mice; assay type: in vivo, mouse
15-PGDH mRNA = 15-PGDH mRNA levels in colon cancer cell lines by real-time PCR; assay type: cell-based
From the text: In these studies parental cell lines (not containing the 15-PGDH-luciferase reporter) are employed.

FVB male mice = assay: Dextran sodium sulfate (DSS) induced colitis; assay type: in vivo, mouse
A549 cells = assay: Cellular toxicity on A549 cells by CellTiter-Glo; assay type: cell-based; conditions: 24 hours, concentrations of up to 10 μM
Experimental: FIGS. 38(A-C) show assays of cellular toxicity on A549 cells at 24 hours of 15-PGDH inhibitors as assayed by CellTiter-Glo measurement.

lethally irradiated mice = assay: Homing of CFSE dye labeled bone marrow cells in lethally irradiated mice; assay type: in vivo, mouse; conditions: 10 mg/kg IP
Experimental: Drugs are administered following radiation, following the transplant, and again at 8 hours after the transplant.

cell culture = assay: Toxicity in a cell culture assay (decrease of cell numbers); assay type: cell-based; conditions: concentration needed to decrease cell numbers in a cell culture assay
Experimental: (§1) Time to inhibition refers to the time needed to inhibit the generation of NADH by 15-PGDH from the moment with drug is added into the reaction mix. Delta Tm refers to the shift in melting temperature of recombinant 15-PGDH in the presence of drug (with cofactor NADH also present). Concentration of Full Cell Line Reporter Induction refers to the concentration of drug that needs to be added to reporter cell line to achieve maximal induction of the 15-PGDH-luciferase gene fusion reporter cassette, as measured by luciferase assays. Hepatocyte stability refers to the half-life of compound in the presence of hepatocytes in culture. Toxicity refers to the concentration of compound needed to decrease cell numbers in a cell culture assay.

[1] = system: C57BL/6J mice irradiated with 11Gy; assay: Survival of irradiated mice receiving marrow allograft (Example 6); assay type: in vivo, mouse; conditions: cohort of 3
From the text: The experimental design is depicted in FIG. 50.
Under the conditions of the mouse colony during this study, control mice receiving 100,000-500,000 cells are all dead between days 4-13 of study. […] Such activity would be of particular utility in settings, such as transplantation with umbilical cord stem cells, in which donor cell numbers are limited.

Hepatocyte stability = assay type: in vitro ADME; conditions: hepatocytes in culture; printed 'Stable > couple hrs' over two lines
Experimental: as §1

[2] = system: 15-PGDH-luciferase fusion reporter in V9m, LS174T and V503 cells; assay: 15-PGDH-luciferase fusion gene reporter induction in colon cancer cell lines; assay type: cell-based

## CCCC[S+]([O-])c1sc2nc(-c3cccs3)cc(-c3ccccc3)c2c1N (stereo not shown) [SW033291, 2-(butylsulfinyl)-4-phenyl-6-(thiophen-2-yl)thieno[2,3-b]pyridin-3-amine]
C57BL/6J mice; 5 mg/kg IP daily, post-operative days 3 and 4
  mitosis per high powered field in liver: significantly increased hepatic mitosis; also recorded: significantly increased numbers of mitotic liver cells
C57BL/6J mice; one mouse each, 5 mg/kg IP bid, post-operative days 1-7
  serum ALT levels: lower
15-PGDH mRNA; V503 cells
  15-PGDH mRNA levels: slight increase in 15-PGDH mRNA
15-PGDH mRNA; treated colon cancer cell lines, real-time PCR
  15-PGDH mRNA levels: do not in general alter 15-PGDH mRNA levels
FVB male mice; 22 days, P=0.001
  change from baseline weight: greater weight at all time points
FVB male mice; colonoscopy days 8, 11, 15
  colon ulcer formation: prevents two-thirds of ulcer formation
FVB male mice; day 15, P=0.045
  reduction of length of ulcerated mucosa versus control: 61%
FVB male mice; day 22
  body weight and colon length: greater body weight and greater colon lengths
FVB male mice; days 8, 11 and 15
  MEICS scores: significantly less colitis activity
A549 cells
  effect on CellTitre-Glo levels: No effect
Lethally irradiated mice; FIG. 88
  increase in numbers of homed cells in recipient bone marrow: 3 fold
Lethally irradiated mice; FIG. 90
  increase in numbers of homed cells in recipient bone marrow: 2 fold
Lethally irradiated mice; FIG. 140
  increase in numbers of homed donor cells in recipient bone marrow: approximately 2.5 fold
Cell culture
  Toxicity: >10 µM
[1]; 1 × 10^5 cells, Day 1
  Number of mice surviving: 3
[1]; 1 × 10^5 cells, Day 2
  Number of mice surviving: 3
[1]; 1 × 10^5 cells, Day 3
  Number of mice surviving: 3
[1]; 1 × 10^5 cells, Day 4
  Number of mice surviving: 2
[1]; 1 × 10^5 cells, Day 5
  Number of mice surviving: 1
[1]; 1 × 10^5 cells, Day 6
  Number of mice surviving: 0
[1]; 2 × 10^5 cells, Day 1
  Number of mice surviving: 3
[1]; 2 × 10^5 cells, Day 2
  Number of mice surviving: 3
[1]; 2 × 10^5 cells, Day 3
  Number of mice surviving: 3
[1]; 2 × 10^5 cells, Day 4
  Number of mice surviving: 3
[1]; 2 × 10^5 cells, Day 5
  Number of mice surviving: 3
[1]; 2 × 10^5 cells, Day 6
  Number of mice surviving: 2
[1]; 2 × 10^5 cells, Day 7
  Number of mice surviving: 2
[1]; 2 × 10^5 cells, Day 8
  Number of mice surviving: 2
[1]; 2 × 10^5 cells, Day 9
  Number of mice surviving: 2
[1]; 2 × 10^5 cells, Day 10
  Number of mice surviving: 2
[1]; 2 × 10^5 cells, Day 11
  Number of mice surviving: 2
[1]; 2 × 10^5 cells, Day 12
  Number of mice surviving: 1
[1]; 2 × 10^5 cells, Day 13
  Number of mice surviving: 0
[1]; 5 × 10^5 cells, Day 1
  Number of mice surviving: 3
[1]; 5 × 10^5 cells, Day 2
  Number of mice surviving: 3
[1]; 5 × 10^5 cells, Day 3
  Number of mice surviving: 3
[1]; 5 × 10^5 cells, Day 4
  Number of mice surviving: 3
[1]; 5 × 10^5 cells, Day 5
  Number of mice surviving: 3
[1]; 5 × 10^5 cells, Day 6
  Number of mice surviving: 3
[1]; 5 × 10^5 cells, Day 7
  Number of mice surviving: 3
[1]; 5 × 10^5 cells, Day 8
  Number of mice surviving: 2
[1]; 5 × 10^5 cells, Day 9
  Number of mice surviving: 2
[1]; 5 × 10^5 cells, Day 10
  Number of mice surviving: 2
[1]; 5 × 10^5 cells, Day 11
  Number of mice surviving: 2
[1]; 5 × 10^5 cells, Day 12
  Number of mice surviving: 2
[1]; 5 × 10^5 cells, Day 13
  Number of mice surviving: 2
Hepatocyte stability
  Hepatocyte stability: couple hrs
[2]; 24 hours, three cell line backgrounds
  exposure needed for maximal reporter induction: 80 to 160 nM
[2]; V9m, LS174T, V503, various concentrations
  luciferase activity of 15-PGDH luciferase fusion cells: increase luciferase activity
